{
  "source": "patent US20240238380A1",
  "about": "“COMPOSITION FOR COMBINATION THERAPY COMPRISING GROWTH DIFFERENTIATION FACTOR-15 VARIANT AND GLUCAGON-LIKE PEPTIDE-1 RECEPTOR AGONIST” (YUHAN CORPORATION, priority 2021, published 2024)",
  "format_in_all_cases": "in vivo",
  "key": {"[1]": {"assay": "Anti-obesity effect alone and in combination with semaglutide in diet-induced obese (DIO) mice (Example 4)", "details": "for Change in body weight (%) vs. day 0, Maximum efficacy: 8 weeks", "source_text": "Diet-induced obese (DIO) mice, obtained by feeding mice with high-fat food, are characterized by obesity, hyperglycemia, and insulin resistance. Diet-induced obese mice (Taconic, USA) resulting from feeding C57BL/6N mice with high-fat food (60 kcal % fat, Research Diets, Cat #D12492, USA) for 8 weeks were purchased from Raon Bio (Animal Inc., Republic of Korea). The diet-induced obese mice were additionally fed with 60% high-fat food for 5 weeks after arrival, and then used in the present test. On the day before drug treatment, the mice were grouped based on the average body weight of individual mice (n=6 per group), after which 10 and 30 nmol/kg of FM9-6+Fc_hole alone, 10 and 30 nmol/kg of semaglutide (long-acting GLP-1 derivative, SEQ ID NO: 114) alone as a control drug, and FM9-6+Fc_hole and semaglutide were administered subcutaneously every 2 days (Q2D) for a total of 8 weeks in a combination of 10+10 and 30+30 nmol/kg. The semaglutide that was used in the test was Ozempic® (semaglutide) from Novo NorDisk. Here, for vehicle treatment, DPBS (Dulbecco's phosphate-buffered saline, Gibco, USA) was subcutaneously administered every 2 days (Q2D). Body weight was measured every 2 days from the first day of drug treatment to day 54, and the results thereof are shown in Table 4 below."}, "[2]": {"assay": "Anti-obesity and metabolic parameter effects alone and in combination with large dose of semaglutide in ob/ob mice (Example 6)", "details": "1 nmol/kg s.c. Q3D", "source_text": "5-week-old male ob/ob mice (Jackson Laboratory, USA) were purchased from Raon Bio (Animal Inc., Republic of Korea). The ob/ob mice were acclimatized with normal chow or normal chow diet (Teklad Certified Irradiated Global 18% Protein Rodent Diet, 2918C, Harlan Co., USA) for 5 weeks, and drug treatment was started at 10 weeks of age. On the day before drug treatment, the mice were grouped based on the body weight of individual mice and random blood glucose levels determined by sampling at the tail vein (n=6 per group). Thereafter, 1 nmol/kg of FM9-6+Fc_hole alone, 30 nmol/kg of semaglutide alone, and FM9-6+Fc_hole and semaglutide in combination (1+30 nmol/kg) were subcutaneously administered thereto a total of 9 times every 3 days (Q3D), and body weight, food intake, and non-fasting blood glucose were measured every day or every 3 days during the experimental period (24 days). Here, DPBS (Dulbecco's phosphate-buffered saline, Gibco, USA) was administered for vehicle treatment."}, "[3]": {"assay": "Anti-obesity effect alone and in combination with semaglutide or tirzepatide in DIO mice (Example 7)", "details": "for Change in body weight (%) vs. day 0, Maximum efficacy: 4 weeks", "source_text": "Diet-induced obese (DIO) mice, obtained by feeding mice with high-fat diet, are characterized by obesity, hyperglycemia, and insulin resistance. Diet-induced obese mice (Taconic, USA) resulting from feeding C57BL/6N mice with high-fat food (60 kcal % fat, Research Diets, Cat #D12492, USA) for 8 weeks were purchased from Raon Bio (Animal Inc., Republic of Korea). The diet-induced obese mice were additionally fed with 60% high-fat food for 5 weeks after arrival, and then used in the present test. On the day before drug treatment, the mice were grouped based on the average body weight of individual mice (n=6 per group), after which 0.1 and 1 nmol/kg of FM9-6+Fc_hole alone, 10 nmol/kg of semaglutide (long-acting GLP-1 derivative, SEQ ID NO: 114) and 10 nmol/kg of tirzepatide (long-acting GLP-1/GIP derivative, SEQ ID NO: 117) alone as control drugs, FM9-6+Fc_hole and semaglutide at doses of 0.1+10 and 1+10 nmol/kg in combination, and FM9-6+Fc_hole and tirzepatide at doses of 1+10 nmol/kg in combination were subcutaneously administered thereto every 3 days (Q3D) for a total of 4 weeks. The semaglutide that was used in the test was Ozempic® (semaglutide) from Novo NorDisk, and the tirzepatide that was used was a material synthesized by MedChemExpress (HY-P1731B, USA). Here, DPBS (Dulbecco's phosphate-buffered saline, Gibco, USA) was administered for vehicle treatment, and, during the experimental period (26 days), body weight was measured every day and food intake was measured every 3 days."}},
  "note": "Marks after values point to notes of the source that are not given here.",
  "data": [
    {"substance": "FM9-6 + Fc_hole: long-acting GDF15 fusion protein (dimer): GDF15 ΔN2, S64R, IgG1 Fc_knob/Fc_hole, linker GS(EAAAK)5; SEQ ID NOs: 103 and 47", "values": [
      {"measurement": "Change in body weight (%) vs. day 0, Maximum efficacy", "setting": "[1]; 10 nmol/kg s.c. Q2D", "value": "−34.57 (On Day 54)**** %"},
      {"measurement": "Change in body weight (%) vs. day 0, Efficacy on Day 54", "setting": "[1]; 10 nmol/kg s.c. Q2D", "value": "−34.57**** %"},
      {"measurement": "Change in body weight (%) vs. day 0, Maximum efficacy", "setting": "[1]; 30 nmol/kg s.c. Q2D", "value": "−35.07 (On Day 54)**** %"},
      {"measurement": "Change in body weight (%) vs. day 0, Efficacy on Day 54", "setting": "[1]; 30 nmol/kg s.c. Q2D", "value": "−35.07**** %"},
      {"measurement": "Change in body weight (%) vs. ob/ob control, Efficacy on Day 24", "setting": "[2]", "value": "−23.37**** %"},
      {"measurement": "Mean of random blood glucose levels (mg/dL), Efficacy on Day 24", "setting": "[2]", "value": "116.2**** mg/dL"},
      {"measurement": "Change in body weight (%) vs. day 0, Maximum efficacy", "setting": "[3]; 0.1 nmol/kg s.c. Q3D", "value": "−6.75 (On Day 25)** %"},
      {"measurement": "Change in body weight (%) vs. day 0, Efficacy on Day 26", "setting": "[3]; 0.1 nmol/kg s.c. Q3D", "value": "−6.68** %"},
      {"measurement": "Change in body weight (%) vs. day 0, Maximum efficacy", "setting": "[3]; 1 nmol/kg s.c. Q3D", "value": "−16.33 (On Day 23)**** %"},
      {"measurement": "Change in body weight (%) vs. day 0, Efficacy on Day 26", "setting": "[3]; 1 nmol/kg s.c. Q3D", "value": "−16.29**** %"}
    ]}
  ]
}
